From patent publication US20250313547A1, “CEREBLON LIGANDS AND BIFUNCTIONAL COMPOUNDS COMPRISING THE SAME” (Arvinas Operations, Inc., priority 2017, published 2025) come the findings set out here.

A value given as a limit tells only on which side of the number the result lay.

Chain of immobilized CRBN protein (cereblon) (Q96SW2 whole entry): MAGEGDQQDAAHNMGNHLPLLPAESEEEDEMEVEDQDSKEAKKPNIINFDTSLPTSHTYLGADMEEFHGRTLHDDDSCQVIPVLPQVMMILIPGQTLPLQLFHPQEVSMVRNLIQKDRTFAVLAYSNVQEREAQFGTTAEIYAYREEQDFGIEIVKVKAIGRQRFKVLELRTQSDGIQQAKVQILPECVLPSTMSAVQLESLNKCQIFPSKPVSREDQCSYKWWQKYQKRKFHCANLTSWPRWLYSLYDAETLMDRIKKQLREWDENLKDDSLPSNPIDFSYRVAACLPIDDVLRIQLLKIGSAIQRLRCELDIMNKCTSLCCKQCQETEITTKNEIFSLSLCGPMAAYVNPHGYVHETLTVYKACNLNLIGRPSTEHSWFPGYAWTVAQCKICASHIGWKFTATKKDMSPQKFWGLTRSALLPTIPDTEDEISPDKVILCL

For the first experiment, the target named is immobilized CRBN protein (cereblon) (Homo sapiens (Human), UniProt Q96SW2). Kind of experiment: Surface plasmon resonance (SPR) KD determination on immobilized cereblon. The settings on record: average of at least N=2, 1:1 fit, read-out: KD Binding to immobilized CRBN protein in SPR assay. The procedure:
The surface plasmon resonance (SPR) experiments were conducted on a Biacore3000 (GE Healthcare). Myc-tagged cereblon was immobilized on a carboxymethylated dextran surface (CM5) amine coupled to anti-Myc antibody to recognize the Myc tag. His-tagged cereblon protein was immobilized on a carboxymethylated dextran surface with nitriloacetic acid (NTA), taking advantage of NTA/Ni^2+ chelation. The prepared surface was allowed to equilibrate over three hours in running buffer (10 mM HEPES buffer @pH 7.4, 150 mM NaCl, 0.005% P20,2% DMSO).
All compounds were prepared in 100% DMSO stock plates with a top concentration of 5 mM in a 3× serial dilution. Compounds were transferred from the stock plate to the assay plate and diluted into running buffer containing no DMSO. All compounds were run as a six-concentration series with a final assay top concentration of 100 μM.
Data analysis was performed in Scrubber 2 (BioLogic software, Campbell, Australia). Blanks were subtracted and data was corrected for DMSO against a standard DMSO curve.
In general terms: SPR reads the build-up and loss of mass on a sensor chip optically.
The term Kd denotes the equilibrium constant for the complex coming apart. As for `O=c1ccn(-c2cnc3ccccc3c2)c(=O)[nH]1` [compound 33], the Kd is over 100 µM. Same read-out and setting: then `O=C1CN(C2Cc3ccccc3C2=O)C(=O)N1` (centres unmarked) [compound 35], with over 100 µM; and `O=C1CCC(N2C(=O)c3cc(F)c(NCCCCCCO)cc3C2=O)C(=O)N1` (centres unmarked) [compound 3], with 10 to 100 µM; and `CCOc1cnn(C2CCC(=O)NC2=O)c(=O)c1` (centres unmarked) [compound 30], with 1 to 10 µM. On the same count and under the same terms, then `O=c1ccn(-c2cncc3ccccc23)c(=O)[nH]1` [compound 34], with 10 to 100 µM; and `O=C1CCC(N2Cc3ccccc3C2=O)C2(COC2)N1` (centres unmarked) [compound 20], with over 100 µM. For the molecule `CCOc1cc(=O)n(C2CCC(=O)NC2=O)cn1` (centres unmarked) [compound 29], the Kd is 10 to 100 µM. Still for that read-out and setting: then `N#Cc1cn(-c2cnc3ccccc3c2)c(=O)[nH]c1=O` [compound 23], with 10 to 100 µM. For the molecule `CNc1ccccc1C(=O)NCCn1ccc(=O)[nH]c1=O` [compound 12], the Kd is over 100 µM.

`Cc1cn(-c2cccnc2)c(=O)[nH]c1=O` [compound 39]: the Kd was over 100 µM. As to `Cc1cc(C#N)[nH]c(=O)c1N1C(=O)c2ccccc2C1=O` [compound 43], the Kd was in the range of 10 to 100 µM.

`O=C1CCC(N2C(=O)c3c(F)ccc(F)c3C2=O)C(=O)N1` (centres unmarked) [compound 8]: the Kd is over 100 µM. On the same count and under the same terms, then `O=C1NC(C(F)(F)F)CCC1N1C(=O)c2cccc(F)c2C1=O` (centres unmarked) [compound 6], with over 100 µM. The same measure, in the same setting: then `O=C1CCC(N2C(=O)c3ccccc3C2=O)C2(COC2)N1` (centres unmarked) [compound 14], with over 100 µM; and `CNc1ccccc1C(=O)NCCN1CCC(=O)NC1=O` [compound 10], with over 100 µM.

In the case of `N#Cc1cn(-c2cccnc2)c(=O)[nH]c1=O` [compound 38], the Kd was over 100 µM. For `Cc1c(N2CCC(=O)NC2=O)cnc2ccccc12` [compound 27], the Kd was over 100 µM. The same measure, in the same setting: then `O=c1ccn([C@H]2C[C@H](O)[C@@H](CO)O2)c(=O)[nH]1` [compound 37], with over 100 µM; and `CN1CC(N2C(=O)c3ccccc3C2=O)C(=O)NC1=O` (centres unmarked) [compound 18], with over 100 µM; and `CCOc1ccn(C2CCC(=O)NC2=O)c(=O)c1` (centres unmarked) [compound 31], with over 100 µM.

Take `NC(=O)c1ccc(N2C(=O)c3ccccc3C2=O)c(=O)[nH]1` [compound 42]: the Kd is over 100 µM. The same measure, in the same setting: then `Cn1cc(N2C(=O)c3ccccc3C2=O)c(=O)[nH]c1=O` [compound 21], with over 100 µM; and `O=C1c2ccccc2C(=O)N1CCn1ccc(=O)[nH]c1=O` [compound 16], with over 100 µM. Same read-out and setting: then `O=C1CCC(N2C(=O)c3ccc(F)c(F)c3C2=O)C(=O)N1` (centres unmarked) [compound 9], with 1 to 10 µM; and `CNc1ccccc1C(=O)NCCN1C(=O)CCNC1=O` [compound 11], with over 100 µM; and `O=C1NCC(N2C(=O)c3ccccc3C2=O)C(=O)N1` (centres unmarked) [compound 25], with over 100 µM. Same read-out and setting: to `O=C1NC(=O)C(N2C(=O)c3cccc(F)c3C2=O)N1` (centres unmarked) [compound 24] belongs over 100 µM; to `O=C1c2cccc(F)c2C(=O)N1c1ccc(C(F)(F)F)[nH]c1=O` [compound 7], over 100 µM. For the molecule `O=C1c2ccccc2C(=O)N1c1c[nH]c(=O)[nH]c1=O` [compound 26], the Kd is over 100 µM. In the case of `O=C1CCC(N2Cc3c(ccc(F)c3OCCCCCCO)C2=O)C(=O)N1` (centres unmarked) [compound 4], the Kd was 10 to 100 µM. `O=C1CCN(c2cncc3ccccc23)C(=O)N1` [compound 32]: the Kd was 1 to 10 µM.

For `CC1(C)C(=O)NC(=O)N1C1CC2CCCCN2C1=O` (centres unmarked) [compound 22], the Kd was over 100 µM.

For `CCOc1cnn(C2CCC(=O)NC2=O)c(=O)c1Cl` (centres unmarked) [compound 15], the Kd is over 100 µM. Same read-out and setting: then `Cc1c(-n2ccc(=O)[nH]c2=O)cnc2ccccc12` [compound 28], with 10 to 100 µM; and `O=c1ccn(-c2cccnc2)c(=O)[nH]1` [compound 40], with 10 to 100 µM.

The next experiment deals with Estrogen receptor-alpha (ERα) (Homo sapiens (Human), UniProt P03372). Kind of experiment: ERα degradation assay using In-Cell Western in MCF7 cells. Particulars: 3 day incubation, read-out: ER degradation DC50. The class given is cell-based. On the procedure: 3. Estrogen Receptor-Alpha (ERα) Degradation Assay Using in-Cell Western™ Assay for Table 5.
Chain of Estrogen receptor-alpha (ERα) (P03372 whole entry): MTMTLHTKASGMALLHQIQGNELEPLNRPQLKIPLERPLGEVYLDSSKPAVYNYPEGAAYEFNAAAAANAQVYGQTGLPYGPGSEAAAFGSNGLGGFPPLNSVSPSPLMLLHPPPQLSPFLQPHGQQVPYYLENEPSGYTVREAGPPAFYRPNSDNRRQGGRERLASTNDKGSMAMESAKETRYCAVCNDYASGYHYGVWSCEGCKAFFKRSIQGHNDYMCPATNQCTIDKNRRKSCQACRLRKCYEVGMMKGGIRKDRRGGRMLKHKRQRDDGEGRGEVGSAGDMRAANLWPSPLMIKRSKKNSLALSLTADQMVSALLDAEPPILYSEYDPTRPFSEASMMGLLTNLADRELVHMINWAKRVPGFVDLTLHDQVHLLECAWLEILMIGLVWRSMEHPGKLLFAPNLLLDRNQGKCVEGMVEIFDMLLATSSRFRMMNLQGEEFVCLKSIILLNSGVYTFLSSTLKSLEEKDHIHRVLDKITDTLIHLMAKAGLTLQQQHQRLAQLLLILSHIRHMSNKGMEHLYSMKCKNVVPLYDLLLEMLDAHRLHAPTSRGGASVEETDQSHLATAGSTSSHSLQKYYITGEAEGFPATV
Degradation of ERα by claimed compounds were determined in MCF7 cells using an In-Cell Western™ assay. Briefly, MCF7 cells were plated in 96-well plates (2000 cells per well in 100 μl media) and incubated at 37° C. under an atmosphere of 5% CO2 in a humidified incubator overnight. One-hundred (100) μl of media containing test compound (at 2× concentration) was added to the appropriate wells to provide 11 serially decreasing concentrations (top final concentration, 1 μM then 3-fold less for the next 10 concentrations); a vehicle control (DMSO) was also added for each compound. For each experiment, all compounds were assayed in duplicate plates. Cells were then incubated for 3 or 5 days in the above-mentioned environment. The assay was terminated by removal of media, a single wash with ice-cold PBS and the addition of 50 μl paraformaldehyde (PFA: 4% in PBS). After 15 minutes in PFA at room temperature, the cells were permeabilized in Tris-phosphate-buffered saline with Tween (0.1%) (TBST) supplemented with Triton X-100 (0.5%) for 15 minutes. Cells were then blocked in BSA (TBST with BSA, 3%) for one hour. […] The cells were incubated overnight at 4° C. The cells were then washed thrice with TBST at room temperature and then incubated with anti-rabbit and anti-mouse fluorescently-labelled secondary antibodies (IRDye®; LI-COR; Lincoln, NE) in LI-COR blocking buffer (Catalog #927-50000) for one hour at room temperature. Following 3 washes with TBST, the buffer was removed and the plates were read on an Odyssey® infrared imaging system (LI-COR®; Lincoln, NE) at 700 nm and 800 nm. Using commercial software (ImageStudio™; LI-COR, Lincoln, NE), the staining intensity for ERα and tubulin in each well was quantified and exported for analysis. For each data point, ERα intensity was normalized to tubulin intensity and for each compound all normalized intensity values were normalized to the vehicle control. DC50 and Dmax values were determined following a 4-parameter IC50 curve fit using ACAS dose response module (McNeil & Co Inc.).
A word on the DC50: it is the midpoint of the concentration-degradation curve. For the molecule `Cc1nc2c(OCCN3CCN(CCOc4ccc(Oc5c(-c6ccc(Br)cc6)sc6cc(O)ccc56)cc4)CC3)cccc2c(=O)n1C1CCC(=O)NC1=O` (centres unmarked) [PROTAC-108, 3-(8-(2-(4-(2-(4-((2-(4-bromophenyl)-6-hydroxybenzo[b]thiophen-3-yl)oxy)phenoxy)ethyl)piperazin-1-yl)ethoxy)-2-methyl-4-oxoquinazolin-3(4H)-yl)piperidine-2,6-dione], the DC50 was at least 0.1 µM.

As to `Cc1nc2c(NCCN3CCN(CCOc4ccc(Oc5c(-c6ccc(Br)cc6)sc6cc(O)ccc56)cc4)CC3)cccc2c(=O)n1C1CCC(=O)NC1=O` (centres unmarked) [PROTAC-107, 3-(8-((2-(4-(2-(4-((2-(4-bromophenyl)-6-hydroxybenzo[b]thiophen-3-yl)oxy)phenoxy)ethyl)piperazin-1-yl)ethyl)amino)-2-methyl-4-oxoquinazolin-3(4H)-yl)piperidine-2,6-dione], the DC50 is at least 0.1 µM.

The same experiment, now with this note: 5 day incubation, read-out: ER degradation DC50.
In the case of `O=C1CCC(N2CC(c3ccc(N4CCN(CC5CCN(c6ccc([C@@H]7c8ccc(O)cc8CC[C@@H]7c7ccccc7)cc6)CC5)CC4)cc3)=CC2=O)C(=O)N1` (stereo partly drawn) [PROTAC-89, 3-[3-[4-[4-[[1-[4-[(1R,2S)-6-hydroxy-2-phenyl-tetralin-1-yl]phenyl]-4-piperidyl]methyl]piperazin-1-yl]phenyl]-5-oxo-2H-pyrrol-1-yl]piperidine-2,6-dione], the DC50 was in the range of 0.001 to 0.01 µM.

On to `O=C1CCC(NC(=O)c2ccc(N3CCN(CCCCCOc4ccc([C@@H]5c6ccc(O)cc6CC[C@@H]5c5ccccc5)cc4)CC3)cn2)C(=O)N1` (mixture of isomers) [PROTAC-91, rac-N-(2,6-dioxopiperidin-3-yl)-5-(4-(5-(4-((1R,2S)-6-hydroxy-2-phenyl-1,2,3,4-tetrahydronaphthalen-1-yl)phenoxy)pentyl)piperazin-1-yl)picolinamide], for which the DC50 was 0.001 to 0.01 µM. `O=C1CCC(n2cc(-c3ccc(N4CCN(CCCOc5ccc([C@@H]6c7ccc(O)cc7CC[C@@H]6c6ccccc6)cc5)CC4)cc3)cn2)C(=O)N1` (mixture of isomers) [PROTAC-110, rac-3-(4-(4-(4-(3-(4-((1R,2S)-6-hydroxy-2-phenyl-1,2,3,4-tetrahydronaphthalen-1-yl)phenoxy)propyl)piperazin-1-yl)phenyl)-1H-pyrazol-1-yl)piperidine-2,6-dione]: the DC50 is under 0.001 µM. On the same count and under the same terms, then `O=C1CCC(n2ncc(N3CCN(CC4CCN(c5ccc([C@@H]6c7ccc(O)cc7CC[C@@H]6c6ccccc6)cc5)CC4)CC3)cc2=O)C(=O)N1` (stereo partly drawn) [PROTAC-102, 3-[4-[4-[[1-[4-[(1R,2S)-6-hydroxy-2-phenyl-tetralin-1-yl]phenyl]-4-piperidyl]methyl]piperazin-1-yl]-6-oxo-pyridazin-1-yl]piperidine-2,6-dione], with 0.001 to 0.01 µM; and `CN(C(=O)c1ccc(N2CCN(CCCCCOc3ccc([C@@H]4c5ccc(O)cc5CC[C@@H]4c4ccccc4)cc3)CC2)cc1)C1CCC(=O)NC1=O` (mixture of isomers) [PROTAC-90, rac-N-(2,6-dioxopiperidin-3-yl)-4-(4-(5-(4-((1R,2S)-6-hydroxy-2-phenyl-1,2,3,4-tetrahydronaphthalen-1-yl)phenoxy)pentyl)piperazin-1-yl)-N-methylbenzamide], with 0.001 to 0.01 µM; and `O=C1CCC(n2cnc(N3CCN(CCCCCOc4ccc([C@@H]5c6ccc(O)cc6CC[C@@H]5c5ccccc5)cc4)CC3)cc2=O)C(=O)N1` (mixture of isomers) [PROTAC-101, rac-3-(4-(4-(5-(4-((1R,2S)-6-hydroxy-2-phenyl-1,2,3,4-tetrahydronaphthalen-1-yl)phenoxy)pentyl)piperazin-1-yl)-6-oxopyrimidin-1(6H)-yl)piperidine-2,6-dione], with 0.001 to 0.01 µM. For `O=C1CCC(n2ncc(N3CCN(CCCCCOc4ccc([C@@H]5c6ccc(O)cc6CC[C@@H]5c5ccccc5)cc4)CC3)cc2=O)C(=O)N1` (mixture of isomers) [PROTAC-100, rac-3-(4-(4-(5-(4-((1R,2S)-6-hydroxy-2-phenyl-1,2,3,4-tetrahydronaphthalen-1-yl)phenoxy)pentyl)piperazin-1-yl)-6-oxopyridazin-1(6H)-yl)piperidine-2,6-dione], the DC50 was in the range of 0.001 to 0.01 µM.
